According to the supplement of paper PMC6045584:
± gives the standard deviation of the averaged measurements.

Key:
[1] = compound: O=C(O)CC[C@H]1CC[C@@](c2cc(F)ccc2F)(S(=O)(=O)c2ccc(Cl)cc2)CC1 [MK0752]; assay: surviving fraction relative to DMSO-only wells; higher = less growth inhibition; settings: exposure time: 5 days
Summary of the method: (§1)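 A line counted only if its three screens reached replicate Pearson r >0.7 and median Z' >0.3. Tumour cells in log phase were seeded at 250–500 per well in 384-well plates and, after 24 hours, kept in continuous contact with inhibitors at 0.5, 1, 5, 10, 50, 100, 500 and 1000 nM for five days. Surviving fraction was taken from CellTiter-Glo luminescence relative to the median of DMSO-only wells.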

[2] = compound: O=C(NOCC1CC1)c1ccc(F)c(F)c1Nc1ccc(I)cc1Cl; assay: as above; settings: exposure time: 5 days
Summary of the method: as §1

Row | Test System | surviving fraction ([1]; 0.5 nM) | surviving fraction ([1]; 1 nM) | surviving fraction ([1]; 5 nM) | surviving fraction ([1]; 10 nM) | surviving fraction ([1]; 50 nM) | surviving fraction ([1]; 100 nM) | surviving fraction ([1]; 500 nM) | surviving fraction ([1]; 1000 nM) | surviving fraction ([2]; 0.5 nM) | surviving fraction ([2]; 1 nM) | surviving fraction ([2]; 5 nM) | surviving fraction ([2]; 10 nM) | surviving fraction ([2]; 50 nM) | surviving fraction ([2]; 100 nM) | surviving fraction ([2]; 500 nM) | surviving fraction ([2]; 1000 nM)
1 | HSSYII SYNOVIAL | 0.985 ± 0.056 | 1 ± 0.056 | 1.03 ± 0.063 | 1.02 ± 0.059 | 1.018 ± 0.0035 | 1.01 ± 0.017 | 0.978 ± 0.029 | 0.955 ± 0.046 | 0.526 ± 0.017 | 0.847 ± 0.035 | 0.872 ± 0.041 | 0.928 ± 0.074 | 0.663 ± 0.059 | 0.807 ± 0.058 | 0.82 ± 0.038 | 0.821 ± 0.022
2 | HT1080 SOFT TISSUE | 0.997 ± 0.018 | 1.02 ± 0.034 | 1.04 ± 0.026 | 1 ± 0.051 | 0.948 ± 0.019 | 1.02 ± 0.04 | 0.984 ± 0.0089 | 0.989 ± 0.029 | 1.009 ± 0.0071 | 1.016 ± 0.01 | 1.01 ± 0.028 | 1.03 ± 0.029 | 1.08 ± 0.025 | 1.04 ± 0.039 | 0.741 ± 0.0079 | 0.617 ± 0.036
3 | HU09 BONE | 0.995 ± 0.11 | 1.06 ± 0.052 | 1.11 ± 0.052 | 1.181 ± 0.0032 | 1.12 ± 0.069 | 1.06 ± 0.088 | 0.984 ± 0.14 | 1.03 ± 0.063 | 0.968 ± 0.024 | 1 ± 0.15 | 1.06 ± 0.073 | 1.06 ± 0.11 | 0.995 ± 0.1 | 1.03 ± 0.12 | 0.894 ± 0.044 | 0.905 ± 0.066
4 | JIMT1 BREAST | 0.966 ± 0.0054 | 0.988 ± 0.018 | 0.997 ± 0.042 | 0.97 ± 0.042 | 0.984 ± 0.021 | 1.04 ± 0.036 | 0.939 ± 0.021 | 0.997 ± 0.018 | 0.957 ± 0.056 | 0.967 ± 0.039 | 0.997 ± 0.032 | 0.997 ± 0.02 | 0.955 ± 0.013 | 0.956 ± 0.017 | 0.8092 ± 0.0039 | 0.7653 ± 0.0068
5 | JURKAT HAEMATOPOIETIC AND LYMPHOID TISSUE | 1.06 ± 0.026 | 1.07 ± 0.021 | 1.07 ± 0.012 | 1.02 ± 0.051 | 1.04 ± 0.017 | 1.01 ± 0.026 | 0.988 ± 0.04 | 0.976 ± 0.023 | 1.03 ± 0.012 | 1.032 ± 0.0095 | 1.04 ± 0.016 | 1.02 ± 0.044 | 0.98 ± 0.011 | 1 ± 0.014 | 1.03 ± 0.013 | 0.994 ± 0.033
6 | KPD BONE | 0.998 ± 0.054 | 0.986 ± 0.046 | 1.12 ± 0.042 | 1.05 ± 0.035 | 1.053 ± 0.0087 | 1.1 ± 0.073 | 0.951 ± 0.067 | 0.915 ± 0.06 | 1.17 ± 0.41 | 0.967 ± 0.047 | 1.032 ± 0.007 | 0.977 ± 0.037 | 0.986 ± 0.065 | 0.96 ± 0.032 | 0.968 ± 0.041 | 0.922 ± 0.055
7 | LM7 BONE | 0.915 ± 0.045 | 0.93 ± 0.078 | 1.08 ± 0.096 | 0.996 ± 0.098 | 1.03 ± 0.035 | 1.05 ± 0.048 | 0.937 ± 0.11 | 0.945 ± 0.063 | 0.983 ± 0.049 | 1.01 ± 0.041 | 1.1 ± 0.12 | 1 ± 0.024 | 1.02 ± 0.073 | 0.943 ± 0.1 | 0.821 ± 0.011 | 0.853 ± 0.089
8 | MCF7 BREAST | 0.922 ± 0.075 | 0.916 ± 0.04 | 0.916 ± 0.0061 | 0.905 ± 0.076 | 0.976 ± 0.051 | 0.913 ± 0.07 | 0.964 ± 0.067 | 0.94 ± 0.029 | 0.843 ± 0.041 | 0.87 ± 0.035 | 0.848 ± 0.02 | 0.849 ± 0.028 | 0.874 ± 0.029 | 0.867 ± 0.045 | 0.849 ± 0.022 | 0.841 ± 0.06
9 | MDAMB134 BREAST | 1.08 ± 0.067 | 1.14 ± 0.093 | 0.96 ± 0.16 | 1.16 ± 0.079 | 0.922 ± 0.035 | 1.09 ± 0.14 | 1 ± 0.063 | 0.934 ± 0.014 | 0.871 ± 0.27 | 1.03 ± 0.16 | 0.933 ± 0.067 | 0.869 ± 0.075 | 0.809 ± 0.097 | 0.732 ± 0.11 | 0.556 ± 0.044 | 0.711 ± 0.15
10 | MDAMB157 BREAST | 0.881 ± 0.054 | 0.981 ± 0.045 | 0.969 ± 0.14 | 1.05 ± 0.022 | 1.11 ± 0.16 | 1.02 ± 0.15 | 0.971 ± 0.07 | 0.962 ± 0.065 | 0.877 ± 0.043 | 0.86 ± 0.12 | 0.929 ± 0.1 | 0.928 ± 0.069 | 0.85 ± 0.02 | 0.866 ± 0.037 | 0.787 ± 0.035 | 0.664 ± 0.013
11 | MDAMB231 BREAST | 0.984 ± 0.033 | 0.993 ± 0.015 | 1.02 ± 0.019 | 1.01 ± 0.02 | 1.01 ± 0.013 | 1.01 ± 0.018 | 0.9137 ± 0.0079 | 0.877 ± 0.01 | 0.963 ± 0.011 | 0.994 ± 0.035 | 1 ± 0.024 | 1.02 ± 0.032 | 0.969 ± 0.024 | 0.912 ± 0.022 | 0.65 ± 0.039 | 0.52 ± 0.02
